Results: patent US6743939B2, “Phenylheteroalkylamine derivatives” (AstraZeneca AB, priority 2000, dated 2004)

Legend:
[1] = molecular target: T1, nitric oxide synthase (induced, from murine macrophage cell line J774A-1) (Mus musculus, UniProt P29477); test: Screen 1: nitric oxide synthase inhibition, 3H-L-arginine to 3H-L-citrulline conversion, lysate of induced J774A-1 cells; format: biochemical; conditions: standard to verify the procedure, 1 hour at room temperature, read-out: IC50 (50% inhibitory concentration)
T1 construct: The reaction is started by adding 50 μl of cell lysate (prepared as above); endogenous in cells; host or cells: J774A-1 murine macrophage cell line, induced with LPS and IFN-gamma; crude cell lysate
Method: The activity of compounds of formula (I), or a pharmaceutically acceptable salt, enantiomer or racemate thereof, may be screened for nitric oxide synthase inhibiting activity by a procedure based on that of Förstermann et al., Eur. J. Pharm., 1992, 225; 161-165. Nitric oxide synthase converts ^3H-L-arginine into ^3H-L-citrulline which can be separated by cation exchange chromatography and quantified by liquid scintillation counting.
Enzyme is prepared, after induction, from the cultured murine macrophage cell line J774A-1 (obtained from the laboratories of the Imperial Cancer Research Fund). J774A-1 cells are cultured in Dulbeccos Modified Eagles Medium (D[MEM) supplemented with 10% foetal bovine serum, 4 mM L-glutamine and antibiotics (100 units/ml penicillin G, […] streptomycin & […] amphotericin B). Cells are routinely grown in […] flasks containing 35 ml medium kept at 37° C. and in a humidified atmosphere containing 5% CO2. […]
Labelled L-citrulline is separated from labelled L-arginine using Dowex AG-50W. […] After allowing the samples to dry the L-citrulline is quantified by scintillation counting.
In a typical experiment basal activity is 300 dpm per 75 μl sample which is increased to 1900 dpm in the reagent controls. […] Compounds are tested at a range of concentrations and from the inhibitions obtained IC50 values are calculated. […]

| Compound | melting point [°C] | IC50 [1] [µM] |
| --- | --- | --- |
| CNCCCC(Oc1cc(Cl)c(F)cc1C#N)c1ccccn1.O=C(O)C(=O)O (stereo not shown) [Example 32, 4-Chloro-5-fluoro-2-[4-(methylamino)-1-(2-pyridinyl)butoxy]benzonitrile oxalate] | 169 to 170 | – |
| N=C(N)NN [aminoguanidine] | – | 10 |
| CNCC[C@@H](Cc1ccccc1)Oc1cc(Cl)ccc1Cl.O=C(O)C(=O)O [Example 2, R-γ-(2,5-Dichlorophenoxy)-N-methyl-benzenebutanamine ethanedioate] | 167 to 169 | – |
| CNCCCC(Oc1cc(Cl)ccc1C#N)c1ccncc1.O=C(O)C(=O)O (stereo not shown) [Example 37, 4-Chloro-2-[4-(methylamino)-1-(4-pyridinyl)butoxy]benzonitrile oxalate] | 169 to 172 | – |
| CNCCC[C@@H](Oc1cc(Cl)ccc1C#N)c1ccccc1.O=C(O)C(=O)O [Example 1, 4-Chloro-2-[[(1R)-4-(methylamino)-1-phenylbutyl]oxy]benzonitrile ethanedioate] | 167 to 169 | – |
| CCN(CCO)CCC[C@@H](Oc1cc(Cl)ccc1C#N)c1ccccc1.Cl | 141 to 144 | – |
| CNCCCC(Oc1cc(Cl)ccc1C#N)c1ccccn1.O=C(O)C(=O)O (stereo not shown) [Example 31, 4-Chloro-2-[4-(methylamino)-1-(2-pyridinyl)butoxy]benzonitrile oxalate] | 170 to 171 | – |

Further lines, with some results ahead:

| melting point [°C] | Compound | IC50 [1] [µM] |
| --- | --- | --- |
| 157 to 158 | N#Cc1ccc(Cl)cc1O[C@H](CCCN1CCCC1)c1ccccc1.O=C(O)C(=O)O [Example 3, 4-Chloro-2-[[(1R)-1-phenyl-4-(1-pyrrolidinyl)butyl]oxy]-benzonitrile ethanedioate] | – |
| 188 to 189 | N#Cc1ccc(Cl)cc1O[C@H](CCCNCc1cccnc1)c1ccccc1.O=C(O)C(=O)O [Example 6, 4-Chloro-2-[[(1R)-1-phenyl-4-[(3-pyridinylmethyl)amino]butyl]oxy]-benzonitrile ethanedioate] | – |
| 126 to 130 | CNCC[C@@H](Cc1ccc(C)cc1)Oc1cc(Cl)ccc1Cl.O=C(O)/C=C/C(=O)O [Example 17, R-γ-(2,5-Dichlorophenoxy)-N,4-dimethyl-benzenebutanamine fumarate] | – |
| 158 to 159 | N#Cc1ccc(Cl)cc1O[C@H](CCCNCCO)c1ccccc1.O=C(O)C(=O)O [Example 9, 4-Chloro-2-[[(1R)-4-[(2-hydroxyethyl)amino]-1-phenylbutyl]oxy]-benzonitrile ethanedioate] | – |
| 186 to 187 | C[C@@H](CO)NCCC[C@@H](Oc1cc(Cl)ccc1C#N)c1ccccc1.O=C(O)C(=O)O [Example 13, 4-Chloro-2-[[(1R)-4-[[(1S)-2-hydroxy-1-methylethyl]amino]-1-phenylbutyl]oxy]-benzonitrile ethanedioate] | – |
| 173 to 174 | N#Cc1ccc(Cl)cc1O[C@H](CCCNC1CC1)c1ccccc1.O=C(O)C(=O)O [Example 10, 4-Chloro-2-[[(1R)-4-(cyclopropylamino)-1-phenylbutyl]oxy]-benzonitrile ethanedioate] | – |
| 160 to 162 | CNCC[C@@H](Cc1ccc(F)cc1)Oc1cc(Cl)ccc1Cl [Example 15, R-γ-(2,5-Dichlorophenoxy)-4-fluoro-N-methyl benzenebutanamine] | – |
| 163 to 164 | C[C@H](CO)NCCC[C@@H](Oc1cc(Cl)ccc1C#N)c1ccccc1.O=C(O)C(=O)O [Example 12, 4-Chloro-2-[[(1R)-4-[[(1R)-2-hydroxy-1-methylethyl]amino]-1-phenylbutyl]oxy]-benzonitrile ethanedioate] | – |
| 111 to 112 | N#Cc1ccc(Cl)cc1O[C@H](CCCNCCCO)c1ccccc1.O=C(O)C(=O)O [Example 11, 4-Chloro-2-[[(1R)-4-[(3-hydroxypropyl)amino]-1-phenylbutyl]oxy]-benzonitrile ethanedioate] | – |
